The results in this text go back to US20220380331A1, “TREATMENT OF CONDITIONS OF THE NERVOUS SYSTEM” (priority 2019, published 2022).

This test relates to sensorimotor cortex (M1). Nature of the test: Intracortical microstimulation (ICMS) mapping of HL and FL cortical movement representations. The format is in vivo, rat. How it is done: FIG. […]): Perineuronal net inhibitor (PNNi) induces reorganisation of the sensorimotor map (M1) in intact rats. Using intracortical microstimulation (ICMS), mapping of the HL and FL cortical movement representations were used to investigate the functional organisation of the M1 of intact/sham animals after long-term treatment with the prospective plasticity enhancer, […] was performed at stereotaxic coordinates within a right hemisphere craniotomy 5 mm rostral/caudal to bregma (B) (A) 11 weeks post mid-thoracic laminectomy (Sham) or for age-controlled intact rats. Individual ICMS maps were combined to give the representative heat map per group illustrating the percentage of animals for each stereotaxic coordinate where hindlimb (HL; B-D) or forelimb (FL; K-M) movements were able to be elicited. A baseline HL and FL cortical map was generated for Lister Hooded rats (B, K; dotted outlines in B-D, K-M) to compare the functional plasticity of groups with sham surgery (C, L) and with chronic PNNi administration (D, M). Measurements for HL analysis (F-G) are illustrated in E). H) Average area (mm^2) of the HL representation reduced with PNNi treatment. […] Measurements for FL analysis (P-S) are illustrated in O). After PNNi treatment, FL movements were elicited in areas that are not associated with FL or HL movements (see right of the baseline HL map; white dotted outline K-M). […]

The structures appear in SMILES notation.

With `Cc1cc(=O)oc2cc(O)ccc12` [PNNi, 4-methylumbelliferone], under “SCI plus long-term PNNi, sham control 4.27±1.56%”, the “percentage of FL movements associated with areas previously eliciting HL movements” value was determined as 23.9±8.01%. Besides, the “total area able to elicit HL movements” value (sham animals, long-term treatment) is listed as “reduced the total area able to elicit HL movements”.
